16 compounds from PubChem BioAssay AID330 (DTP/NCI, 2004) can be followed below.

The test system of this assay is P388 leukemia ip, CD2F1 mice, survival T/C. Briefly: NCI In Vivo Anticancer Drug Screen. Data for tumor model P388 Leukemia (intraperitoneal) in CD2F1 (CDF1) mice. The following applies: endpoint: median survival time, higher = longer survival. In a few lines: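 Mice carrying the transplanted tumor received test compound or vehicle. Survival was recorded in each group, and the value is the treated-group measurement divided by that of the vehicle-treated control group.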

The mark [1] stands for this setting: dose: 12.5 mg/kg/injection, schedule: Q01DX005 (ip), vehicle: Klucel (hydroxypropylcellulose) (HPC).
Where [2] appears, read: dose: 25.0 mg/kg/injection, schedule: Q01DX005 (ip), vehicle: Klucel (hydroxypropylcellulose) (HPC).
Where [3] appears, read: dose: 50.0 mg/kg/injection, schedule: Q01DX005 (ip), vehicle: Klucel (hydroxypropylcellulose) (HPC).
The mark [4] stands for this setting: dose: 100.0 mg/kg/injection, schedule: Q01DX005 (ip), vehicle: Klucel (hydroxypropylcellulose) (HPC).
Setting [5] is: dose: 200.0 mg/kg/injection, schedule: Q01DX005 (ip), vehicle: Klucel (hydroxypropylcellulose) (HPC).
Setting [6] is: dose: 60.0 mg/kg/injection, schedule: Q01DX005 (ip), vehicle: saline with Tween-80.
The mark [7] stands for this setting: dose: 120.0 mg/kg/injection, schedule: Q01DX005 (ip), vehicle: saline with Tween-80.

Structures are written as SMILES. Several values for one entry are separate records, joined by “and”; a condition that tells them apart may be missing. Equal entries are not always repeated. Inconclusive results and toxic doses are left out.

Regarding `CC(C)CC1[NH][Sn]2([NH]C(CC(C)C)C(=O)[O]2)[O]C1=O` (stereo unspecified), the T/C (dose: 6.25 mg/kg/injection, schedule: Q01DX005 (ip), vehicle: Klucel (hydroxypropylcellulose) (HPC)) is 104 % of control; the T/C under setting [1] was 105 % of control; the T/C under setting [2] was 104 % of control.

As for `COc1ccc(CCN2C(=O)CCC3=C2CCC3=O)cc1OC`, the T/C under setting [2] was 100 % of control, the T/C under setting [3] was 98 % of control, the T/C under setting [4] is 100 % of control and the T/C under setting [5] was 106 % of control.

`Cc1nccnc1NN=O`: the T/C by setting is: (dose: 3.12 mg/kg/injection, schedule: Q01DX009 (ip), vehicle: water) 101 % of control; (dose: 6.25 mg/kg/injection, schedule: Q01DX009 (ip), vehicle: water) 104 % of control; (dose: 12.5 mg/kg/injection, schedule: Q01DX009 (ip), vehicle: water) 111 % of control and 113 % of control; (dose: 100.0 mg/kg/injection, schedule: Q01DX009 (ip), vehicle: water) 87 % of control.

As for `CCOC(=O)N[N+]12CCN(CC1)CC2`, the T/C (dose: 100.0 mg/kg/injection, schedule: Q04DX003 (ip), vehicle: saline) was 100 % of control; the T/C (dose: 200.0 mg/kg/injection, schedule: Q04DX003 (ip), vehicle: saline) was 102 % of control; the T/C (dose: 400.0 mg/kg/injection, schedule: Q04DX003 (ip), vehicle: saline) was 102 % of control.

For `Cc1ccc2c(O)c3c(cc2c1)C(=O)c1c2c(cc(O)c1C3=O)C1(C)OC(O2)C(O)C(N(C)C)C1O` (stereo unspecified), the T/C is, setting by setting: (dose: 1.6 mg/kg/injection, schedule: Q01DX009 (ip), vehicle: other) 97 % of control; (dose: 3.13 mg/kg/injection, schedule: Q01DX009 (ip), vehicle: other) 98 % of control; (dose: 6.25 mg/kg/injection, schedule: Q01DX009 (ip), vehicle: other) 87 % of control; (dose: 12.5 mg/kg/injection, schedule: Q01DX009 (ip), vehicle: other) 116 % of control; (dose: 25.0 mg/kg/injection, schedule: Q01DX009 (ip), vehicle: other) 97 % of control.

Take `Cc1cc(C)c(Cn2c(=O)[nH][nH]c2=O)cc1Cn1c(=O)[nH][nH]c1=O`: the T/C is 107 % of control (dose: 50.0 mg/kg/injection, schedule: Q01DX009 (ip), vehicle: Klucel (hydroxypropylcellulose) (HPC)); 100 % of control (dose: 100.0 mg/kg/injection, schedule: Q01DX009 (ip), vehicle: Klucel (hydroxypropylcellulose) (HPC)); 100 % of control (dose: 200.0 mg/kg/injection, schedule: Q01DX009 (ip), vehicle: Klucel (hydroxypropylcellulose) (HPC)).

With `c1c[se]c(-c2nc3ccccc3[nH]2)c1`, the T/C is, setting by setting: under setting [1], 99 % of control; under setting [2], 107 % of control; under setting [3], 110 % of control; under setting [4], 107 % of control.

In the case of `Cc1ccc(S(=O)(=O)C(CCC(=O)c2ccccc2)(CCC(=O)c2ccccc2)[N+](=O)[O-])cc1`, the T/C runs as follows: under setting [3], 91 % of control; under setting [4], 92 % of control; under setting [5], 87 % of control.

Regarding `CCCCCCCCCCCCCCCCC1=C(C(=O)OC)NC(N)=NC1O` (stereo unspecified), the T/C (dose: 7.5 mg/kg/injection, schedule: Q01DX005 (ip), vehicle: saline with Tween-80) was 103 % of control; the T/C (dose: 15.0 mg/kg/injection, schedule: Q01DX005 (ip), vehicle: saline with Tween-80) was 100 % of control; the T/C (dose: 30.0 mg/kg/injection, schedule: Q01DX005 (ip), vehicle: saline with Tween-80) is 102 % of control; the T/C under setting [6] is 103 % of control; the T/C under setting [7] is 103 % of control; the T/C (dose: 600.0 mg/kg/injection, schedule: Q01DX005 (ip), vehicle: saline with Tween-80) was 106 % of control.

Take `O=C(/C(=N/Nc1ccccc1)C(=S)Nc1ccccc1)c1ccccc1`: the T/C was 99 % of control (dose: 3.13 mg/kg/injection, schedule: Q01DX005 (ip), vehicle: saline with Tween-80); 95 % of control (dose: 6.25 mg/kg/injection, schedule: Q01DX005 (ip), vehicle: saline with Tween-80); 91 % of control and 92 % of control (dose: 12.5 mg/kg/injection, schedule: Q01DX005 (ip), vehicle: saline with Tween-80); 90 % of control (dose: 25.0 mg/kg/injection, schedule: Q01DX005 (ip), vehicle: saline with Tween-80); 89 % of control and 93 % of control (dose: 50.0 mg/kg/injection, schedule: Q01DX005 (ip), vehicle: saline with Tween-80); 90 % of control (dose: 200.0 mg/kg/injection, schedule: Q01DX005 (ip), vehicle: saline with Tween-80).

As for `c1ccc(C2(c3ccc(C4(c5ccccc5)Oc5ccccc5S4)[nH]3)Oc3ccccc3S2)cc1` (stereo unspecified), the T/C runs as follows: under setting [6], 96 % of control; under setting [7], 107 % of control.

`CCCNC(=O)CCC(NS(=O)(=O)c1ccccc1)C(=O)O` (stereo unspecified): the T/C (dose: 100.0 mg/kg/injection, schedule: Q04DX002 (ip), vehicle: Klucel (hydroxypropylcellulose) (HPC)) is 91 % of control; the T/C (dose: 200.0 mg/kg/injection, schedule: Q04DX002 (ip), vehicle: Klucel (hydroxypropylcellulose) (HPC)) was 102 % of control; the T/C (dose: 400.0 mg/kg/injection, schedule: Q04DX002 (ip), vehicle: Klucel (hydroxypropylcellulose) (HPC)) is 96 % of control.

On to `COC(OC(CO)C(O)S(=O)(=O)O)C(O)S(=O)(=O)O` (stereo unspecified), for which the T/C was 100 % of control (dose: 6.25 mg/kg/injection, schedule: Q01DX009 (ip), vehicle: saline); 105 % of control (dose: 12.5 mg/kg/injection, schedule: Q01DX009 (ip), vehicle: saline); 118 % of control (dose: 25.0 mg/kg/injection, schedule: Q01DX009 (ip), vehicle: saline); 173 % of control (dose: 50.0 mg/kg/injection, schedule: Q01DX009 (ip), vehicle: saline); 155 % of control (dose: 100.0 mg/kg/injection, schedule: Q01DX009 (ip), vehicle: saline); 157 % of control (dose: 200.0 mg/kg/injection, schedule: Q01DX009 (ip), vehicle: saline).

For `Cc1cc(NC(=O)Nc2ccc(Cl)cc2)no1`, the T/C by setting is: (dose: 100.0 mg/kg/injection, schedule: Q04DX003 (ip), vehicle: saline with Tween-80) 100 % of control; (dose: 200.0 mg/kg/injection, schedule: Q04DX003 (ip), vehicle: saline with Tween-80) 95 % of control; (dose: 400.0 mg/kg/injection, schedule: Q04DX003 (ip), vehicle: saline with Tween-80) 100 % of control.

For `C=CC1=C(C)C2=NC1=CC1=NC(=CC3=C(C)C4=C(O)C(C(=O)O)C(=C5NC(=C2)C(C)C5CCC(=O)O)C4=N3)C(CC)=C1C` (stereo unspecified), the T/C is 98 % of control (dose: 50.0 mg/kg/injection, schedule: Q01DX005 (ip), vehicle: suspension in saline); 103 % of control (dose: 100.0 mg/kg/injection, schedule: Q01DX005 (ip), vehicle: suspension in saline); 98 % of control (dose: 200.0 mg/kg/injection, schedule: Q01DX005 (ip), vehicle: suspension in saline).

With `C/C(=C1/SC(=S)NC1=O)c1ccc(Cl)c(O)c1`, the T/C reads like this: under setting [6], 99 % of control; under setting [7], 97 % of control; (dose: 240.0 mg/kg/injection, schedule: Q01DX005 (ip), vehicle: saline with Tween-80) 88 % of control.
